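Results reflect a 48-hour exposure of cells in 96-well plates to compound at five concentrations. GI50: concentration for 50% inhibition of growth.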 Activity calls are given as the source filed them. Rule as the data show it: active = GI50 up to about 1.1 µM and inactive = higher.
Experiments:
Assay in all cases: NCI-60 cell line screen, 48 h
[1] = system: 786-0
[2] = system: A498
[3] = system: A549
[4] = system: ACHN
[5] = system: CAKI-1
[6] = system: CCRF-CEM
[7] = system: COLO 205
[8] = system: DLD-1
[9] = system: DMS-114
[10] = system: DMS-273
[11] = system: EKVX
[12] = system: HCC 2998
[13] = system: HCT-116
[14] = system: HCT-15
[15] = system: HL-60
[16] = system: HOP-18
[17] = system: HOP-62
[18] = system: HOP-92
[19] = system: HT-29
[20] = system: IGROV-1
[21] = system: K562
[22] = system: KM-20L2
[23] = system: KM12
[24] = system: LOX IMVI
[25] = system: LXFL 529
[26] = system: M14
[27] = system: M19-MEL
[28] = system: MOLT-4
[29] = system: Malme-3M
[30] = system: NCI-H226
[31] = system: NCI-H23
[32] = system: NCI-H460
[33] = system: NCI-H522
[34] = system: OVCAR-3
[35] = system: OVCAR-4
[36] = system: OVCAR-5
[37] = system: OVCAR-8
[38] = system: RPMI-8226
[39] = system: RXF 393
[40] = system: RXF 631
[41] = system: SF-268
[42] = system: SF-295
[43] = system: SF-539
[44] = system: SK-MEL-28
[45] = system: SK-MEL-2
[46] = system: SK-MEL-5
[47] = system: SK-OV-3
[48] = system: SN12C
[49] = system: SNB-19
[50] = system: SNB-75
[51] = system: SNB-78
[52] = system: SR
[53] = system: SW-620
[54] = system: TK-10
[55] = system: U-251
[56] = system: UACC-257
[57] = system: UACC-62
[58] = system: UO-31
[59] = system: XF498

`O=C1C2C(C(=O)N1c1ccccc1)C1(Br)c3ccccc3C2(Br)C2C(=O)N(c3ccccc3)C(=O)C21` (centres undefined) was tested, and the GI50 [1] was 20.5 µM (inactive), the GI50 [2] was 21.9 µM (inactive) and the GI50 [3] was 28.1 µM (inactive). For the same compound, the GI50 [4] was 18.1 µM (inactive), the GI50 [5] was 64 µM (inactive) and the GI50 [6] was 26.6 µM (inactive). For the same compound, the GI50 [7] was > 31.6 µM (inactive), the GI50 [8] was 16.8 µM (inactive) and the GI50 [9] was > 31.6 µM (inactive). The GI50 [10] was 11.7 µM (inactive), the GI50 [11] was > 31.6 µM (inactive) and the GI50 [12] was 15 µM (inactive). For the same compound, the GI50 [13] was 28.3 µM (inactive), the GI50 [14] was 23.8 µM and the GI50 [15] was > 31.6 µM (inactive). The GI50 [16] was 18.1 µM (inactive), the GI50 [17] was > 10 µM (inactive) and the GI50 [18] was > 10 µM (inactive). For the same compound, the GI50 [19] was 27.8 µM (inactive), the GI50 [20] was > 31.6 µM (inactive) and the GI50 [21] was 6.27 µM (inactive). For the same compound, the GI50 [22] was 24.5 µM (inactive), the GI50 [23] was 16.6 µM (inactive) and the GI50 [24] was > 31.6 µM (inactive). The GI50 [25] was 7.62 µM (inactive), the GI50 [26] was > 31.6 µM (inactive) and the GI50 [27] was > 31.6 µM (inactive). For the same compound, the GI50 [28] was 20.6 µM (inactive), the GI50 [29] was 30.1 µM (inactive) and the GI50 [30] was > 31.6 µM (inactive). For the same compound, the GI50 [31] was 17.6 µM (inactive), the GI50 [32] was > 31.6 µM (inactive) and the GI50 [33] was > 10 µM (inactive). The GI50 [34] was > 31.6 µM (inactive), the GI50 [35] was 7.21 µM (inactive) and the GI50 [36] was > 31.6 µM (inactive). The GI50 [37] was > 100 µM (inactive), the GI50 [38] was 10.6 µM (inactive) and the GI50 [39] was 11 µM (inactive). For the same compound, the GI50 [40] was > 100 µM (inactive), the GI50 [41] was 27.7 µM (inactive) and the GI50 [42] was > 100 µM (inactive). The GI50 [43] was 27.2 µM (inactive), the GI50 [44] was > 31.6 µM (inactive) and the GI50 [45] was 31.4 µM (inactive). For the same compound, the GI50 [46] was > 31.6 µM (inactive), the GI50 [47] was > 100 µM (inactive) and the GI50 [48] was > 31.6 µM (inactive). The GI50 [49] was > 31.6 µM (inactive), the GI50 [50] was 13 µM (inactive) and the GI50 [51] was 12.5 µM (inactive). For the same compound, the GI50 [52] was > 10 µM (inactive), the GI50 [53] was > 31.6 µM (inactive) and the GI50 [54] was > 31.6 µM (inactive). For the same compound, the GI50 [55] was > 31.6 µM (inactive), the GI50 [56] was > 31.6 µM (inactive) and the GI50 [57] was 23.7 µM (inactive). For the same compound, the GI50 [58] was 17.5 µM (inactive) and the GI50 [59] was 29.2 µM (inactive).
